Experimental data published in ChEMBL document CHEMBL1201862, “PubChem BioAssay data set” (2004).
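These data come from cells grown in 96-well plates and exposed to compound for 48 hours at five concentrations. GI50 marks 50% less growth.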 The source made the active and inactive calls. Rule as the data show it: active = GI50 up to about 1.1 µM and inactive = higher.

Tests used:
Experiment in all cases: growth of human tumour cells (NCI), 48 h
[1] = test system: SK-MEL-2
[2] = test system: ACHN
[3] = test system: NCI-H23
[4] = test system: MDA-N
[5] = test system: SK-MEL-5
[6] = test system: SNB-75
[7] = test system: EKVX
[8] = test system: SR
[9] = test system: A498
[10] = test system: HCT-116
[11] = test system: OVCAR-5
[12] = test system: PC-3
[13] = test system: K562
[14] = test system: NCI/ADR-RES
[15] = test system: Malme-3M
[16] = test system: MCF7
[17] = test system: SK-OV-3
[18] = test system: UO-31
[19] = test system: RXF 393
[20] = test system: DU-145
[21] = test system: A549
[22] = test system: SF-268
[23] = test system: CAKI-1
[24] = test system: NCI-H522
[25] = test system: BT-549
[26] = test system: SNB-19
[27] = test system: OVCAR-4
[28] = test system: U-251
[29] = test system: MDA-MB-231
[30] = test system: SN12C
[31] = test system: T47D
[32] = test system: OVCAR-3
[33] = test system: OVCAR-8
[34] = test system: NCI-H226
[35] = test system: Hs-578T
[36] = test system: HOP-62
[37] = test system: COLO 205
[38] = test system: CCRF-CEM
[39] = test system: SF-539
[40] = test system: RPMI-8226
[41] = test system: HT-29
[42] = test system: 786-0
[43] = test system: SF-295
[44] = test system: SW-620
[45] = test system: HCC 2998
[46] = test system: SK-MEL-28
[47] = test system: M14
[48] = test system: TK-10
[49] = test system: MDA-MB-435
[50] = test system: UACC-257
[51] = test system: KM12
[52] = test system: MOLT-4
[53] = test system: HOP-92
[54] = test system: HCT-15
[55] = test system: UACC-62
[56] = test system: NCI-H460
[57] = test system: HL-60
[58] = test system: IGROV-1
[59] = test system: LOX IMVI

CC1=NN(c2ccccc2)C(=O)/C1=C\c1c(C)[nH]n(-c2ccccc2)c1=O
GI50 [1]: > 100 µM (inactive)
GI50 [2]: > 100 µM (inactive)
GI50 [3]: > 100 µM (inactive)
GI50 [4]: > 100 µM (inactive)
GI50 [5]: > 100 µM (inactive)
GI50 [6]: > 100 µM (inactive)
GI50 [7]: > 100 µM (inactive)
GI50 [8]: > 100 µM (inactive)
GI50 [9]: > 100 µM (inactive)
GI50 [10]: > 100 µM (inactive)
GI50 [11]: > 100 µM (inactive)
GI50 [12]: 77.4 µM (inactive)
GI50 [13]: 38.8 µM (inactive)
GI50 [14]: > 100 µM (inactive)
GI50 [15]: 95.1 µM (inactive)
GI50 [16]: > 100 µM (inactive)
GI50 [17]: > 100 µM (inactive)
GI50 [18]: > 100 µM (inactive)
GI50 [19]: 35.1 µM (inactive)
GI50 [20]: > 100 µM (inactive)
GI50 [21]: > 100 µM (inactive)
GI50 [22]: > 100 µM (inactive)
GI50 [23]: > 100 µM (inactive)
GI50 [24]: 53.7 µM (inactive)
GI50 [25]: > 100 µM (inactive)
GI50 [26]: > 100 µM (inactive)
GI50 [27]: > 100 µM (inactive)
GI50 [28]: > 100 µM (inactive)
GI50 [29]: > 100 µM (inactive)
GI50 [30]: > 100 µM (inactive)
GI50 [31]: 36.1 µM (inactive)
GI50 [32]: 54.5 µM (inactive)
GI50 [33]: > 100 µM (inactive)
GI50 [34]: > 100 µM (inactive)
GI50 [35]: > 100 µM (inactive)
GI50 [36]: > 100 µM (inactive)
GI50 [37]: > 100 µM (inactive)
GI50 [38]: 75.9 µM (inactive)
GI50 [39]: > 100 µM (inactive)
GI50 [40]: 28.4 µM (inactive)
GI50 [41]: 81.1 µM (inactive)
GI50 [42]: > 100 µM (inactive)
GI50 [43]: > 100 µM (inactive)
GI50 [44]: 92.7 µM (inactive)
GI50 [45]: > 100 µM (inactive)
GI50 [46]: > 100 µM (inactive)
GI50 [47]: > 100 µM (inactive)
GI50 [48]: > 100 µM (inactive)
GI50 [49]: > 100 µM (inactive)
GI50 [50]: > 100 µM (inactive)
GI50 [51]: > 100 µM (inactive)
GI50 [52]: > 100 µM (inactive)
GI50 [53]: 27.1 µM (inactive)
GI50 [54]: > 100 µM
GI50 [55]: > 100 µM (inactive)
GI50 [56]: > 100 µM (inactive)
GI50 [57]: > 100 µM (inactive)
GI50 [58]: > 100 µM (inactive)

c1ccc2/c3[nH]/c(c2c1)=N\c1ccc(cc1)-c1nc2ccc(cc2o1)/N=c1/[nH]/c(c2ccccc12)=N/c1ccc2nc(oc2c1)-c1ccc(cc1)\N=3
GI50 [1]: 38.8 µM (inactive)
GI50 [2]: 16.6 µM (inactive)
GI50 [3]: 43.4 µM (inactive)
GI50 [4]: 27.4 µM (inactive)
GI50 [5]: 12.4 µM (inactive)
GI50 [6]: > 100 µM (inactive)
GI50 [7]: 45.6 µM (inactive)
GI50 [8]: 20.3 µM (inactive)
GI50 [9]: 33.5 µM (inactive)
GI50 [10]: 32.8 µM (inactive)
GI50 [11]: > 100 µM (inactive)
GI50 [12]: 29.9 µM (inactive)
GI50 [13]: 15.8 µM (inactive)
GI50 [14]: 20.5 µM (inactive)
GI50 [16]: 37.8 µM (inactive)
GI50 [17]: 72.8 µM (inactive)
GI50 [18]: 15.9 µM (inactive)
GI50 [19]: 43.2 µM (inactive)
GI50 [20]: 23.2 µM (inactive)
GI50 [21]: 26.8 µM (inactive)
GI50 [22]: 15.3 µM (inactive)
GI50 [23]: 35.4 µM (inactive)
GI50 [24]: 43.8 µM (inactive)
GI50 [25]: > 100 µM (inactive)
GI50 [26]: 26.1 µM (inactive)
GI50 [28]: 20.1 µM (inactive)
GI50 [29]: 27 µM (inactive)
GI50 [30]: 20.9 µM (inactive)
GI50 [31]: 25.2 µM (inactive)
GI50 [32]: 26.5 µM (inactive)
GI50 [33]: > 100 µM (inactive)
GI50 [34]: 68.2 µM (inactive)
GI50 [35]: > 100 µM (inactive)
GI50 [36]: 62.4 µM (inactive)
GI50 [37]: 11.6 µM (inactive)
GI50 [38]: 2.26 µM (inactive)
GI50 [39]: 77.1 µM (inactive)
GI50 [40]: 18.9 µM (inactive)
GI50 [41]: 33.4 µM (inactive)
GI50 [42]: 31 µM (inactive)
GI50 [43]: 31 µM (inactive)
GI50 [44]: 26.5 µM (inactive)
GI50 [45]: 17.1 µM (inactive)
GI50 [46]: 24.5 µM (inactive)
GI50 [47]: 53.8 µM (inactive)
GI50 [48]: > 100 µM (inactive)
GI50 [49]: 27.6 µM (inactive)
GI50 [50]: > 100 µM (inactive)
GI50 [51]: 35.1 µM (inactive)
GI50 [52]: 14.9 µM (inactive)
GI50 [53]: 37.3 µM (inactive)
GI50 [54]: 3.1 µM
GI50 [59]: 29.4 µM (inactive)
GI50 [55]: 51.4 µM (inactive)
GI50 [56]: 7.38 µM (inactive)
GI50 [57]: 0.422 µM (active)
GI50 [58]: 47.2 µM (inactive)
